Reference: patent US9902986B2, “Enterobactin conjugates and uses thereof” (Massachusetts Institute of Technology, priority 2013, dated 2018)

What was measured:
[1] = system: E. coli 25922; test: Antimicrobial activity assay, E. coli 25922; format: cell-based, Escherichia coli; details: 50% MHB, 200 μM DP (iron-deficient), 30° C., t=19 h
Description: (§1) No antibiotic marker was included in these cultures. […] Bacterial growth was determined by measuring OD600 using a BIOTEK SYNERGY HT plate reader. Each well condition was prepared in duplicate, and at least three independent replicates were conducted on different days. The resulting mean OD600 are reported and the error bars are the standard deviation.
In another exemplary experiment, antibacterial activities of the conjugates were tested against E. coli 25922 in 50% MHB at 30° C., t=19 h. […] Under iron-deficient conditions, Ent-Amp and MGE-Amp provided a complete growth inhibition at 100 nM whereas 1 μM of DGE-Amp was required to provide a complete growth inhibition.

[2] = system: E. coli H9049; test: Antimicrobial activity assay, E. coli H9049; format: cell-based, Escherichia coli; details: 50% MHB, 30° C., t=19 h
Description: (§2) Overnight cultures of the bacterial strains were prepared by inoculating 5 mL of LB with the bacterial freezer stocks and the cultures were incubated at 37° C. in a tabletop incubator shaker set at 150 rpm. The overnight culture grew to saturation and was diluted 1:100 into 5 mL of fresh LB medium containing DP (200 μM) and incubated at 37° C. with shaking at 150 rpm until OD600 reached 0.6. The cultures were subsequently diluted to an OD600 value of 0.001 in 50% MHB medium (11.5 g/L) with or without DP (200 μM). No antibiotic marker was included in these cultures. A 90-μL aliquot of the diluted culture was combined with a 10-μL aliquot of a 10× solution of the tested compounds in a 96-well plate, which was wrapped in […] and incubated at 30° C. with shaking at 150 rpm for 19 h. Bacterial growth was determined by measuring OD600 using a BIOTEK SYNERGY HT plate reader. Each well condition was prepared in duplicate, and at least three independent replicates were conducted on different days. The resulting mean OD600 are reported and the error bars are the standard deviation.
In another exemplary experiment, antibacterial activities of the conjugates were tested against E. coli H9049 in 50% MHB at 30° C., t=19 h. DP (200 μM) was added to provide conditions of iron limitation.

[3] = system: Salmonella enterica serovar Typhimurium (STM) IR715; test: Antibacterial activity assay, Salmonella Typhimurium; format: cell-based; details: 50% MHB, 100 μM 2,2′-dipyridyl, 30° C., t=19 h
Description: FIGS. 12A and 12B show exemplary antibacterial activities of Ent-Amp, Ent-Amx, MGE-Amp, MGE-Amx, DGE-Amp, and DGE-Amx against Salmonella enterica serovar Typhimurium (STM) IR715 (50% MHB with 100 μM 2,2′-dipyridyl to provide conditions of iron limitation, 30° C., t=19 h). (FIG. 12A) Antibacterial activity of Amp and the Amp-containing conjugates (Ent-Amp, MGE-Amp, and DGE-Amp). […] (FIG. 12B) Antibacterial activity of Amx and the Amx-containing conjugates (Ent-Amx, MGE-Amx, and DGE-Amx).

[4] = system: E. coli CFT073; test: Competition assay with native siderophores, E. coli CFT073; format: cell-based, Escherichia coli; details: conjugate 100 nM, varied Ent, MGE or DGE, 50% MHB, 200 μM DP, 30° C., t=19 h
Description: These assays were performed following the general procedure described herein except that varying concentrations of Ent, MGE, or DGE, each of which was unmodified, were mixed with Ent-Amp, Ent-Amx, MGE-Amp, MGE-Amx, DGE-Amp, or DGE-Amx. Ent was synthesized following a literature procedure^55 and stored as DMSO stock solution at −20° C. MGE and DGE were prepared from Ent using MceC and IroB as described for MGE-PEG3-N3 and DGE-PEG3-N3.
(§3) In another exemplary experiment, select conjugates (Ent-Amp, MGE-Amp, and DGE-Amp) with select native siderophores (Ent, MGE, and DGE) were tested against the uropathogenic strain E. coli CFT073 in 50% MHB, t=19 h, 30° C. 2,2′-dipyridyl (DP, 200 μM) was added to provide conditions of iron limitation. The concentration of the conjugates was fixed at 100 nM and the concentration of the native siderophores was varied.
as §3, with “(Ent-Amx, MGE-Amx,” for “(Ent-Amp, MGE-Amp,”, “DGE-Amx)” for “DGE-Amp)”, “DP (200” for “2,2′-dipyridyl (DP, 200”

[5] = system: mixed culture of E. coli K-12 and E. coli UTI89; test: Mixed culture assay, E. coli K-12 and E. coli UTI89; format: cell-based, Escherichia coli; details: iron-deficient conditions (200 μM DP), 50% MHB, 30° C., t=19 h
Description: (§4) No antibiotic marker was included in these cultures.

[6] = system: E. coli K-12; test: Antimicrobial activity assay, E. coli K-12; format: cell-based, Escherichia coli; details: for concentrations at which E. coli K-12 was inhibited: inhibition attributed to iron deprivation
Description: as §2
In an exemplary experiment, antibacterial activities of the conjugates were tested against E. coli K-12 in 50% MHB at 30° C., t=19 h. 2,2′-dipyridyl (DP, 200 μM) was added to provide conditions of iron limitation.

[7] = system: E. coli CFT073; test: Antimicrobial activity assay, E. coli CFT073; format: cell-based, Escherichia coli; details: for concentration providing complete growth inhibition: 200 μM DP (iron-deficient); for effect of preloading Fe(III) on antibacterial activity: Fe(III)-loaded versus apo conjugates
Description: as §2
In another exemplary experiment, antibacterial activities of the conjugates were tested against E. coli CFT073 in 50% MHB at 30° C., t=19 h. DP (200 μM) was added to provide conditions of iron limitation.
In another exemplary experiment, antibacterial activities of Fe(III)-loaded or apo Ent-β-lactam conjugates (Ent-Amp and Ent-Amx) and their glucosylated derivatives (MGE-Amp, MGE-Amx, DGE-Amp, and DGE-Amx) against the uropathogenic strain E. coli CFT073 were tested in 50% MHB, 30° C., t=19 h. 2,2′-dipyridyl (DP, 200 μM) was added to provide conditions of iron limitation.

[8] = system: mixed culture of E. coli K-12 and E. coli CFT073; details: iron-deficient conditions (200 μM DP), 50% MHB, 30° C., t=19 h
Description: as §4
2,2′-dipyridyl (DP, 200 μM) was added to provide conditions of iron limitation.

[9] = system: E. coli UTI89; test: Antimicrobial activity assay, E. coli UTI89; format: cell-based, Escherichia coli; details: 50% MHB, 200 μM DP (iron-deficient), 30° C., t=19 h
Description: as §1
In another exemplary experiment, antibacterial activities of the conjugates were tested against E. coli UTI89 in 50% MHB at 30° C., t=19 h. […] Under iron-deficient conditions, Ent-Amp, MGE-Amp, and DGE-Amp provided a complete growth inhibition at 100 nM.

[10] = 50% MHB, 200 μM DP, 30° C., t=19 h

| SMILES | concentration providing complete growth inhibition [1] [nM] | antibacterial activity at 100 nM ([2]; 200 μM DP) | antibacterial activity relative to the unmodified antibiotic [3] | attenuation of antibacterial activity by native siderophores [4] | growth inhibition in mixed culture at 100 nM [5] | antibacterial activity at 100 nM [6, 10] | concentrations at which E. coli K-12 was inhibited [6] | concentration providing complete growth inhibition ([7]; 50% MHB, 30° C., t=19 h) [nM] | effect of preloading Fe(III) on antibacterial activity [7, 10] | growth inhibition in mixed culture at 100 nM [8] | concentration providing complete growth inhibition [9] [nM] | further results |
| --- | --- | --- | --- | --- | --- | --- | --- | --- | --- | --- | --- | --- |
| CC1(C)SC2C(NC(=O)C(NC(=O)CCCc3cn(CCOCCOCCOCCNC(=O)c4cc(O)c(O)c(C(=O)NC5COC(=O)C(NC(=O)c6cc(C7OC(CO)C(O)C(O)C7O)cc(O)c6O)COC(=O)C(NC(=O)c6cccc(O)c6O)COC5=O)c4)nn3)c3ccccc3)C(=O)N2C1C(=O)O (stereo not shown) [MGE-Amp] | 100 | inactive | enhanced antibacterial activity relative to unmodified Amp | attenuated by Ent, MGE, and DGE | only inhibited the growth of E. coli UTI89 | inactive | micromolar concentrations | 10 | no effect | only inhibited the growth of E. coli CFT073 | 100 | antibacterial activity, comparison ([2]; 200 μM DP): more active against the bacteria than DGE-Amp; antibacterial activity, comparison [6, 10]: more active against the bacteria than DGE-Amp |
| CC1(C)SC2C(NC(=O)C(NC(=O)CCCc3cn(CCOCCOCCOCCNC(=O)c4cc(O)c(O)c(C(=O)NC5COC(=O)C(NC(=O)c6cccc(O)c6O)COC(=O)C(NC(=O)c6cccc(O)c6O)COC5=O)c4)nn3)c3ccccc3)C(=O)N2C1C(=O)O (stereo not drawn) [Ent-Amp] | 100 |  | enhanced antibacterial activity relative to unmodified Amp | only attenuated in the presence of Ent and MGE |  |  |  |  | no effect |  | 100 | concentration providing complete growth inhibition ([2]; 200 μM DP (iron-deficient)): 100 nM; concentration providing complete growth inhibition for both strains [5]: 100 nM; concentration providing complete growth inhibition ([6]; 50% MHB, 200 μM DP (iron-deficient), 30° C., t=19 h): 100 nM; antibacterial activity at 10 nM ([7]; 10 nM, 50% MHB, 200 μM DP, 30° C., t=19 h): slightly less active; concentration providing complete growth inhibition for both strains [8]: 100 nM |
| CC1(C)SC2C(NC(=O)C(NC(=O)CCCc3cn(CCOCCOCCOCCNC(=O)c4cc(O)c(O)c(C(=O)NC5COC(=O)C(NC(=O)c6cc(C7OC(CO)C(O)C(O)C7O)cc(O)c6O)COC(=O)C(NC(=O)c6cc(C7OC(CO)C(O)C(O)C7O)cc(O)c6O)COC5=O)c4)nn3)c3ccccc3)C(=O)N2C1C(=O)O (stereo not shown) [DGE-Amp] |  | inactive | enhanced antibacterial activity relative to unmodified Amp | attenuated by Ent, MGE, and DGE | only inhibited the growth of E. coli UTI89 | inactive | micromolar concentrations | 10 | no effect | only inhibited the growth of E. coli CFT073 | 100 | concentration required to provide complete growth inhibition [1]: 1 µM; concentration at which growth inhibition was observed (attributed to iron deprivation) ([2]; 200 μM DP): 10 µM; concentration at which growth inhibition was observed (attributed to iron deprivation) [6, 10]: 10 µM; improved antibacterial activity against E. coli CFT073 over E. coli K-12 ([7]; CFT073 (FepA and IroN) versus K-12 (FepA only)): 100 fold |
| CC1(C)SC2C(NC(=O)C(NC(=O)CCCc3cn(CCOCCOCCOCCNC(=O)c4cc(O)c(O)c(C(=O)NC5COC(=O)C(NC(=O)c6cccc(O)c6O)COC(=O)C(NC(=O)c6cccc(O)c6O)COC5=O)c4)nn3)c3ccc(O)cc3)C(=O)N2C1C(=O)O (stereo not drawn) [Ent-Amx] |  |  | enhanced antibacterial activity relative to unmodified Amx | only attenuated in the presence of Ent or MGE |  |  |  |  | no effect |  |  |  |
